Data as given in US20250340581A1, “PAEONIFLORIN MONOHYDRATE CRYSTAL FORM A, PREPARATION METHOD THEREFOR, AND USE THEREOF” (SHANGHAI INSTITUTE OF MATERIA MEDICA.CHINESE ACADEMY OF …, priority 2023, published 2025).

Key:
Format in all cases: physicochemical
[1] = Hygroscopicity test by dynamic moisture sorption (DVS); details: for adsorbed moisture: 80% RH, 25° C., DVS
Protocol: DVS analysis: all dynamic moisture sorption analysis […] of this experiment were determined by DVS advantage model sorption instrument, British SMS company, relative humidity range: 0-95%, temperature: 25° C. Commercially available paeoniflorin (Aladdin Company, batch number K2011169, purity ≥98%) was used as the amorphous powder, and its X-ray powder diffraction comparison diagram with the crystal form A of the present invention is shown in FIG. 6, and the hygroscopicity analysis comparison diagram of paeoniflorin and the crystal form A of the present invention is shown in FIG. 7. […] The hygroscopicity of crystal form B was analyzed using DVS advantage adsorption instrument of SMS company in the UK, the amorphous form adsorbed 11.1% of water at 80% RH, showing hygroscopicity; Paeoniflorin crystal form B of the present invention adsorbed 2.22% of water at 80% RH, but its hygroscopicity was obviously different from that of crystal form A.

[2] = Accelerated stability in a stability box (40° C./75% RH); details: 15 days acceleration
[3] = Solubility in water
Protocol: The crystal form A has good water solubility, the solubility in water is more than 20 mg/mL, and the crystal form A is easy to dissolve.

[4] = Thermal stability by TG and DSC
Protocol: DSC analysis: the method adopts a DSC 8500 model differential scanning calorimeter of PerkinElmer company, US. for detection, the atmosphere is nitrogen, and the heating speed is 10° C./min.
TG analysis: the method adopts a thermogravimetric analyzer Netzsch TG 209F3 model of German […] company, temperature range: 30-400° C., scan rate: 10° C./min, purge gas: 25 mL/min.

SMILES	adsorbed moisture [1]	adsorbed moisture ([1]; listed as paeoniflorin monohydrate crystal form A)	hygroscopicity (qualitative) ([1]; no wet agglomeration, powder has good fluidity)	physical stability (conversion to amorphous or other forms) [2]	solubility [3]	phase transition and weight loss temperatures [4]
CC12CC3(O)OC(O1)C1(COC(=O)c4ccccc4)C3CC21OC1OC(CO)C(O)C(O)C1O (stereo not shown) [Paeoniflorin crystal form B]	2.22%	–	–	–	–	–
CC12CC3(O)OC(O1)C1(COC(=O)c4ccccc4)C3CC21OC1OC(CO)C(O)C(O)C1O (stereo not shown) [crystal form A]	–	0.3%	small hygroscopicity	did not convert to amorphous or other forms	> 20 mg/mL	above 100 °C
CC12CC3(O)OC(O1)C1(COC(=O)c4ccccc4)C3CC21OC1OC(CO)C(O)C(O)C1O (stereo not shown) [amorphous form, reference compound]	11.1%	–	–	–	–	–
